Assays:
Format in all cases: functional, cell-based
L1210 = assay: Antiproliferative activity against mouse L1210 cells assessed as cell viability after 72 hrs by MTS assay; details: L1210, 72 h
HCT-116 = assay: Antiproliferative activity against human HCT116 cells assessed as cell viability after 72 hrs by MTS assay; details: HCT-116, 72 h
HCT-116/VM46 = assay: Antiproliferative activity against vinblastine-resistant human HCT116/VM46 cells assessed as cell viability after 72 hrs by MTS assay; details: HCT-116/VM46, 72 h

SMILES	IC50 (L1210) [nM]	IC50 (HCT-116) [nM]	IC50 (HCT-116/VM46) [nM]
CC[C@]12C=CCN3CC[C@@]4(c5cc([C@@]6(C(=O)OC)C[C@@H]7CN(CCc8c6[nH]c6ccccc86)C[C@](O)(CCC#N)C7)c(OC)cc5N(C)[C@H]4[C@@](O)(C(=O)OC)[C@@H]1OC(C)=O)[C@@H]32	80	80	8000
CCC[C@]1(O)C[C@H]2CN(CCc3c([nH]c4ccccc34)[C@@](C(=O)OC)(c3cc4c(cc3OC)N(C)[C@H]3[C@@](O)(C(=O)OC)[C@H](OC(C)=O)[C@]5(CC)C=CCN6CC[C@]43[C@@H]65)C2)C1	300	420	> 1000
CC[C@]12C=CCN3CC[C@@]4(c5cc([C@@]6(C(=O)OC)C[C@@H]7CN(CCc8c6[nH]c6ccccc86)C[C@@]6(O)CCCC[C@H]76)c(OC)cc5N(C)[C@H]4[C@@](O)(C(=O)OC)[C@@H]1OC(C)=O)[C@@H]32	6	6	200
CC[C@]12C=CCN3CC[C@@]4(c5cc([C@@]6(C(=O)OC)C[C@@H]7CN(CCc8c6[nH]c6ccccc86)C[C@](O)(CCF)C7)c(OC)cc5N(C)[C@H]4[C@@](O)(C(=O)OC)[C@@H]1OC(C)=O)[C@@H]32	7.5	6.3	420
CC[C@]12C=CCN3CC[C@@]4(c5cc([C@@]6(C(=O)OC)C[C@@H]7CN(CCc8c6[nH]c6ccccc86)C[C@](O)(CCN=[N+]=[N-])C7)c(OC)cc5N(C)[C@H]4[C@@](O)(C(=O)OC)[C@@H]1OC(C)=O)[C@@H]32	65	70	3000
CC[C@]12C=CCN3CC[C@@]4(c5cc([C@@]6(C(=O)OC)C[C@@H]7CN(CCc8c6[nH]c6ccccc86)C[C@@]6(O)CCCC[C@@H]76)c(OC)cc5N(C)[C@H]4[C@@](O)(C(=O)OC)[C@@H]1OC(C)=O)[C@@H]32	0.6	0.7	60
CCCC[C@]1(O)C[C@H]2CN(CCc3c([nH]c4ccccc34)[C@@](C(=O)OC)(c3cc4c(cc3OC)N(C)[C@H]3[C@@](O)(C(=O)OC)[C@H](OC(C)=O)[C@]5(CC)C=CCN6CC[C@]43[C@@H]65)C2)C1	480	790	> 1000
CC[C@]12C=CCN3CC[C@@]4(c5cc([C@@]6(C(=O)OC)C[C@@H]7CN(CCc8c6[nH]c6ccccc86)C[C@](O)(CCO)C7)c(OC)cc5N(C)[C@H]4[C@@](O)(C(=O)OC)[C@@H]1OC(C)=O)[C@@H]32	> 1000	> 1000	> 1000
